Assays:
Format in all cases: cell-based
[1] = test system: ovarian (OVCAR3) cell line; experiment: Tumor-inhibiting activity on cell line; conditions: compared with IC50 <0.003 mg/ml tumor types
[2] = test system: parvicellular bronchial carcinoma cell line (DMS 114); experiment: Tumor-inhibiting activity on cell line; conditions: compared with IC50 <0.003 mg/ml tumor types
[3] = test system: renal-cell carcinoma xenografts; experiment: Tumor-inhibiting activity on xenografts; conditions: one of two renal-cell carcinoma xenografts
prostrate carcinomas = experiment: Tumor-inhibiting activity, selectivity for tumor types
melanoma xenograft = experiment: Tumor-inhibiting activity on xenograft; conditions: compared with IC50 <0.003 mg/ml tumor types
mammary carcinomas = experiment: Tumor-inhibiting activity, selectivity for tumor types
[4] = test system: stomach carcinoma xenograft; experiment: Tumor-inhibiting activity on xenograft; conditions: compared with IC50 <0.003 mg/ml tumor types
[5] = test system: macrocellular bronchial carcinomas; experiment: Tumor-inhibiting activity, selectivity for tumor types

bis(2-acetylpyridine-4,4-dimethyl thiosemicarbazonato-N1, N2,S)gallium(III) tetrachlorogallate(III)
tumor-inhibiting effect [1]: Comparable effects
tumor-inhibiting effect [2]: Comparable effects
tumor-inhibiting activity [3]: above-average activity
IC50 (prostrate carcinomas): < 3 µg/mL
tumor-inhibiting effect (melanoma xenograft): Comparable effects
IC50 (mammary carcinomas): < 3 µg/mL
tumor-inhibiting effect [4]: Comparable effects
IC50 [5]: < 3 µg/mL

Reference: US7019156B2, “Tumor inhibiting gallium compounds” (Faustus Forschungs Cie. Translational Cancer Research GmbH, priority 2001, dated 2006)
